# From patent US20250129334A1, “LINEAGE SPECIFICATION DURING STEM CELL TRANSITION” (Amniotics AB, priority 2021, published 2025)
# How the values were obtained:
# HSC-like cells = assay: HSC-like cell subculture with metabolic regulators, flow cytometry; type: cell-based, human; details: day 3, UK5099 10 μM
# Text: The RB9-CB1 human iPSC line (Woods, N.-B. et al. Brief report: efficient generation of hematopoietic precursors and progenitors from human pluripotent stem cell lines. Stem Cells 29, 1158-1164 (2011)) was co-cultured with mouse embryonic fibroblasts (MEFs, Millipore), passaged every six days and processed to form embryoid bodies (EBs) as described previously (Guibentif, C. et al. Single-Cell Analysis Identifies Distinct Stages of Human Endothelial to-Hematopoietic Transition. Cell Reports 19, 10-19 (2017)). The differentiation protocol used in this study was previously described (Ditadi, A. & Sturgeon, C. M. Directed differentiation of definitive hemogenic endothelium and hematopoietic progenitors from human pluripotent stem cells. Methods 101, 65-72 (2016)), however, small modifications were made to induce both primitive and definitive hematopoiesis, as indicated below and in FIG. 6, a. Newly-formed EBs were first kept in SFD medium supplemented with 1 ng/ml Activin A (on days 0-2) and 3 μM CHIR99021 (on day 2 only). At day 3, media was switched to “Day 3-SP34” medium supplemented with 1 ng/ml Activin A (on day 3 only) and 3 μM CHIR99021 (on day 3 only) until day 6. On day 6, media was replaced by “Day 6-SP34” medium, until day 8. […]
# fetal liver = assay: In vivo compound injection of pregnant mice, fetal liver analysis at E14.5
# Protocol: For fetal liver analysis, pregnant female C57Bl/6xB6.SJL mice were injected intraperitoneally at E9.5 with UK5099 (4 mg/kg) or DCA (200 mg/kg) or PBS (control). Embryos were harvested at E14.5 and individually weighed and processed. Fetal livers were dissected and homogenised in 800 μL ice cold PBS supplemented with 2% fetal bovine serum (FBS) and FL cells were washed in PBS with 2%/FBS. For the differentiated lineage panel, cells were stained with B220 and CD19 (B-cell markers)-PE, CD3e-APC, Ter119-PeCy7 and CD71-FITC and analyzed on a BD FACSARIA III. For the HSC panel, samples were first treated with ammonium chloride solution (STEMCELL Technologies, France) to lyse red blood cells, washed twice in ice cold PBS with 2% FBS, stained with CD3e, B220, Ter119, Gr1 (Lineage)-PeCy5, c-Kit-Efluor780, Sca1-BV421, CD48-FITC, CD150-BV605 and 7-AAD (for dead cell exclusion) and analyzed on a BD FACSARIA III. […] For plating of CFU assays, 100 LT-HSCs were sorted (gating strategy shown in FIG. 11, e) and resuspended in 3.0 mL Methocult M3434 (STEMCELL Technologies, France). Each mixture was divided onto 2 wells of a non-tissue culture treated 6-well plate. Following a 14-day incubation in a humidified incubator at 37° C., 5% CO2, 20% O2, colonies were morphologically distinguished and scored. […] Cells were stained with anti-cKit and anti-CD45 antibodies and analyzed on a BD LSRFortessa. […]
smiles,measurement,setting,value
"N#CC(=Cc1cn(-c2ccccc2)c2ccccc12)C(=O)O [UK5099, 2-Cyano-3-(1-phenyl-1H-indol-3-yl)-2-propenoic acid]",CD43+GPA+ cell output,HSC-like cells,absence of bias
same,frequency of phenotypic long-term HSCs (LT-HSCs),"fetal liver; LSK CD48-CD150+, UK5099 4 mg/kg, DCA 200 mg/kg",not significantly affected
same,in vivo EHT and hematopoiesis,fetal liver; UK5099 4 mg/kg i.p. at E9.5,did not see a significant effect
